Patent publication US9546164B2 (GENENTECH, INC., priority 2013, dated 2017)
Where a name gives a salt, the structure may show the parent alone.

These compounds were tested against hNav1.7 (Homo sapiens (Human), UniProt Q15858) (assay: Tritiated sulfonamide competitive binding to membranes from cells expressing hNav1.7 and the β1 subunit). Conditions: not given.
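Note: Filter-bound radioactivity counted by liquid scintillation, nonspecific binding defined with excess unlabelled ligand, IC50 fitted to percent inhibition of specific binding.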

hNav1.7, sequence (Q15858 other isoform, or with tags, fused parts or gaps): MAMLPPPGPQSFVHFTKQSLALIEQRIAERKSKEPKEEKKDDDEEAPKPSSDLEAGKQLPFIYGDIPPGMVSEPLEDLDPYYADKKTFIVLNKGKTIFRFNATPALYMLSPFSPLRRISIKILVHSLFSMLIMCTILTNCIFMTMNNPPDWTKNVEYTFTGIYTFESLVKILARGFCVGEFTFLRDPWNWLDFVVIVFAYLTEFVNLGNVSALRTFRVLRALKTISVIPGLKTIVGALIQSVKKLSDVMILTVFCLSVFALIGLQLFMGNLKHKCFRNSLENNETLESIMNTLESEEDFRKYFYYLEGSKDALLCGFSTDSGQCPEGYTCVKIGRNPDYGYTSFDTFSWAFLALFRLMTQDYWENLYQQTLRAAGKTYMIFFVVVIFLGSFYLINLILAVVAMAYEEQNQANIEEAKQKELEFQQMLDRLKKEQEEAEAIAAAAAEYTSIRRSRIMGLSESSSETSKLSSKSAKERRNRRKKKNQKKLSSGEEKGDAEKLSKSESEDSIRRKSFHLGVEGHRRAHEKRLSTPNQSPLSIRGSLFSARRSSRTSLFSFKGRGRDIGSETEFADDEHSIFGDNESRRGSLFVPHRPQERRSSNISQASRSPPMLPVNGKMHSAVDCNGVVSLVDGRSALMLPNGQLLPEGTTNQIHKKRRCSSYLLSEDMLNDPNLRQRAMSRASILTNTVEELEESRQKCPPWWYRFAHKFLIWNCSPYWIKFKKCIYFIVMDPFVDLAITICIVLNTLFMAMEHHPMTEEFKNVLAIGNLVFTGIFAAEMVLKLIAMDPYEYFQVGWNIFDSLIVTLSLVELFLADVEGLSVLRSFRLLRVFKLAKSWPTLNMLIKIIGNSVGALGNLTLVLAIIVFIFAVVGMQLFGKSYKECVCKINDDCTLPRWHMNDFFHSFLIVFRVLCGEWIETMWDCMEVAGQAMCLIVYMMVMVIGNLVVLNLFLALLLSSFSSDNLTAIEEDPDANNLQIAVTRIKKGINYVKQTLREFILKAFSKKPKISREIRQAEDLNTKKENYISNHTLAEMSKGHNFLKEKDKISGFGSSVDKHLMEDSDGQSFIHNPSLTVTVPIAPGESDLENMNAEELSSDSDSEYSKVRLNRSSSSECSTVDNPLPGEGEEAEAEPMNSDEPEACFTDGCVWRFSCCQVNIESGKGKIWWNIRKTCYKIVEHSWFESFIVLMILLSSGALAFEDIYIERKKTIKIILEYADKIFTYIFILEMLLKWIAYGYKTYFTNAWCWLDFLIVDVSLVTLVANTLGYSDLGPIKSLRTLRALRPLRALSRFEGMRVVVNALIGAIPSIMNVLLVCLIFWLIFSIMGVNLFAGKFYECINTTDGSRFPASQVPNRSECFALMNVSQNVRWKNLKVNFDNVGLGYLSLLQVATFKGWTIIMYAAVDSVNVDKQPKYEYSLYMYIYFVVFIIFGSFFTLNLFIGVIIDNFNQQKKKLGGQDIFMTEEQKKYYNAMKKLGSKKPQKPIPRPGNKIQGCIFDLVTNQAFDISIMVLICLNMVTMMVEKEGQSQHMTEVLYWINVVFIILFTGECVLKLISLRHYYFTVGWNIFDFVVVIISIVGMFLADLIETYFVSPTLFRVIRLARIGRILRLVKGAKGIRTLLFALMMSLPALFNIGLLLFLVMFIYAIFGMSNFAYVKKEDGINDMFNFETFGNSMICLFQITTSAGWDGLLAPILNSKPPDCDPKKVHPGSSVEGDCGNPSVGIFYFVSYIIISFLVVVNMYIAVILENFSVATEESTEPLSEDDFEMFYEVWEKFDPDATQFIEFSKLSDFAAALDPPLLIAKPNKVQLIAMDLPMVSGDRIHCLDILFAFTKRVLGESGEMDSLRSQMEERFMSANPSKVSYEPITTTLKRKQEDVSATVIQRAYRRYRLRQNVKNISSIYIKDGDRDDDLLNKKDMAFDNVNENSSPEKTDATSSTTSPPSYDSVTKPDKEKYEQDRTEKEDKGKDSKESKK
hNav1.7, sequence (Q07699 19-218 partner): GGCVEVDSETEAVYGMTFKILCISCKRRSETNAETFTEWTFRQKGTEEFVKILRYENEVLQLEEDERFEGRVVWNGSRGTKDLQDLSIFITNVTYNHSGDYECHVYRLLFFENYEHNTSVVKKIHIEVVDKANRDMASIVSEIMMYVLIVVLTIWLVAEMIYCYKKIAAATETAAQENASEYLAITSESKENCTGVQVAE

Structure (SMILES)	IC50 [nM]
CS(=O)(=O)NC(=O)c1cc(C2CC2)c(O[C@@H]2CCCN(Cc3ccc(F)cc3)C2)cc1F [Example 20, (R)-5-cyclopropyl-2-fluoro-4-((1-(4-fluorobenzyl)piperidin-3-yl)oxy)-N-(methlysulfonyl)benzamide]	30.9
O=C(NS(=O)(=O)N1CCC1)c1cc(C2CC2)c(O[C@@H]2CCCN(Cc3cccc(Cl)c3)C2)cc1F [Example 28, (R)—N-(azetidin-1-ylsulfonyl)-4-((1-(3-chlorobenzyl)piperidin-3-yl)oxy)-5-cyclopropyl-2-fluorobenzamide]	7.4
C[C@@H](c1cc(Cl)cc(Cl)c1)N1C[C@@H]2C[C@H]1CN2Cc1cc(F)c(C(=O)NS(=O)(=O)C2CC2)cc1C1CC1 [Example 564, 5-cyclopropyl-N-(cyclopropylsulfonyl)-4-(((1S,4S)-5-((S)-1-(3,5-dichlorophenyl)ethyl)-2,5-diazabicyclo[2.2.1]heptan-2-yl)methyl)-2-fluorobenzamide, trifluoroacetic acid salt]	3.6

Same assay, conditions: read-out: Ligand Binding Assay; 100 pM [3H]compound, membranes with hNav1.7 and β1 subunit, 18 h, room temperature

Structure (SMILES)	IC50 [nM]
CC(C)(C)OC(=O)N1CC(COc2cc(F)c(C(=O)NS(C)(=O)=O)cc2C2CC2)C1 [Example 72, tert-butyl 3-((2-cyclopropyl-5-fluoro-4-((methylsulfonyl)carbamoyl)phenoxy)methyl)azetidine-1-carboxylate]	750
CS(=O)(=O)NC(=O)c1cc(C2CC2)c(OCC2CCN(S(=O)(=O)c3ccc(OC(F)(F)F)cc3)CC2)cc1F [Example 378, 5-cyclopropyl-2-fluoro-N-(methylsulfonyl)-4-((1-((4-(trifluoromethoxy)phenyl)sulfonyl)piperidin-4-yl)methoxy)benzamide]	45.9
CC1(COc2cc(F)c(C(=O)NS(C)(=O)=O)cc2C2CC2)CCN(Cc2cc(Cl)ccc2C(F)(F)F)CC1 [Example 122]	2.4
C[C@H](c1cc(Cl)cc(Cl)c1)N1[C@@H]2CC[C@H]1C[C@H](COc1cc(F)c(C(=O)NS(C)(=O)=O)cc1C1CC1)C2 [Example 353, 5-cyclopropyl-4-(((1R,3S,5S)-8-((R)-1-(3,5-dichlorophenyl)ethyl)-8-azabicyclo[3.2.1]octan-3-yl)methoxy)-2-fluoro-N-(methylsulfonyl)benzamide, trifluoroacetic acid salt]	11
CS(=O)(=O)NC(=O)c1cc(C2CC2)c(OCC2CN(S(=O)(=O)c3cc(Cl)cc(Cl)c3)C2)cc1F [Example 274, 5-Cyclopropyl-4-((1-((3,5-dichlorophenyl)sulfonyl)azetidin-3-yl)methoxy)-2-fluoro-N-(methylsulfonyl)benzamide]	68
O=C(NS(=O)(=O)CC1CC1)c1cc(C2CC2)c(OCC2CN(C(c3ccccc3)c3ccccc3)C2)cc1F [Example 64, 4-((1-benzhydrylazetidin-3-yl)methoxy)-5-cyclopropyl-N-((cyclopropylmethyl)-sulfonyl)-2-fluorobenzamide]	4.7
CS(=O)(=O)NC(=O)c1cc(C2CC2)c(O[C@@H]2CCCN(Cc3cc(C(F)(F)F)cc(C4CC4)n3)C2)cc1F [Example 305, (R)-5-cyclopropyl-4-((1-((6-cyclopropyl-4-(trifluoromethyl)pyridin-2-yl)methyl)piperidin-3-yl)oxy)-2-fluoro-N-(methylsulfonyl)benzamide]	3.9
CS(=O)(=O)NC(=O)c1cc(C2CC2)c(OC[C@H]2CCCN(Cc3cc(Cl)cc(Cl)c3)C2)cc1F [Example 336, (S)-5-cyclopropyl-4-((1-(3,5-dichlorobenzyl)piperidin-3-yl)methoxy)-2-fluoro-N-(methylsulfonyl)benzamide]	4.9
O=C(NS(=O)(=O)C1CC1)c1cc(C2CC2)c(OCC2CCN(c3cc(C(F)(F)F)c(Cl)cn3)CC2)cc1F [Example 555, 4-((1-(5-chloro-4-(trifluoromethyl)pyridin-2-yl)piperidin-4-yl)methoxy)-5-cyclopropyl-N-(cyclopropylsulfonyl)-2-fluorobenzamide]	2.9
C[C@@H](c1cc(Cl)cc(Cl)c1)N1CCC(F)(COc2cc(F)c(C(=O)NS(C)(=O)=O)cc2C2CC2)CC1 [Example 349, (S)-5-cyclopropyl-4-((1-(1-(3,5-dichlorophenyl)ethyl)-4-fluoropiperidin-4-yl)methoxy)-2-fluoro-N-(methylsulfonyl)benzamide, trifluoroacetic acid salt]	4
O=C(NS(=O)(=O)C1CC1)c1cc(C2CC2)c(CN2CCC(Oc3cc(Cl)cc(Cl)c3)CC2)cc1F [Example 57, 5-cyclopropyl-N-(cyclopropylsulfonyl)-4-((4-(3,5-dichlorophenoxy)piperidin-1-yl)methyl)-2-fluorobenzamide, trifluoroacetic acid salt]	3.8
CS(=O)(=O)NC(=O)c1cc(C2CC2)c(OCC2CCN(S(C)(=O)=O)CC2)cc1F [Example 395, 5-cyclopropyl-2-fluoro-N-(methylsulfonyl)-4-((1-(methylsulfonyl)piperidin-4-yl)methoxy)benzamide]	> 10000
CS(=O)(=O)NC(=O)c1cc(C2CC2)c(OCC2(C#N)CCN(Cc3cc(C(F)(F)F)cc(Cl)c3F)CC2)cc1F [Example 595, 4-((1-(3-chloro-2-fluoro-5-(trifluoromethyl)benzyl)-4-cyanopiperidin-4-yl)methoxy)-5-cyclopropyl-2-fluoro-N-(methylsulfonyl)benzamide]	34.3
C[C@H]1CC[C@@H](Oc2cc(F)c(C(=O)NS(=O)(=O)N3CCC3)cc2C2CC2)CN1Cc1ccc(F)cc1Cl [Example 325, N-(azetidin-1-ylsulfonyl)-4-(((3R,6S)-1-(2-chloro-4-fluorobenzyl)-6-methylpiperidin-3-yl)oxy)-5-cyclopropyl-2-fluorobenzamide]	2.4
CS(=O)(=O)NC(=O)c1cc(C2CC2)c(OCC2(F)CCN(Cc3cc(C(F)(F)F)cc(C4CC4)n3)CC2)cc1F [Example 596]	59.9
CC1(COc2cc(F)c(C(=O)NS(C)(=O)=O)cc2C2CC2)CN(Cc2cc(C(F)(F)F)cc(Cl)c2F)C1 [Example 593, 4-((1-(3-chloro-2-fluoro-5-(trifluoromethyl)benzyl)-3-methylazetidin-3-yl)methoxy)-5-cyclopropyl-2-fluoro-N-(methylsulfonyl)benzamide]	9.9
CS(=O)(=O)NC(=O)c1cc(C2CC2)c(OCC2CCN(Cc3ccc(Cl)cc3C(F)(F)F)CC2)cc1F [Example 579, 4-((1-(4-chloro-2-(trifluoromethyl)benzyl)piperidin-4-yl)methoxy)-5-cyclopropyl-2-fluoro-N-(methylsulfonyl)benzamide]	2.9
Cc1ccc(CN2CCC(COc3cc(F)c(C(=O)NS(C)(=O)=O)cc3C3CC3)CC2)cc1 [Example 93, 5-Cyclopropyl-2-fluoro-4-((1-(4-methylbenzyl)piperidin-4-yl)methoxy)-N-(methylsulfonyl)benzamide]	173
CCS(=O)(=O)NC(=O)c1cc(C2CC2)c(OCC2CCN([C@H](c3cc(Cl)cc(Cl)c3)C(C)(C)OC)CC2)cc1F (single isomer, unassigned) [Example 207]	1.7
CS(=O)(=O)NC(=O)c1cc(C2CC2)c(O[C@@H]2CCCN(Cc3cc(Cl)cc(Cl)c3)C2)cc1F [Example 440]	0.3
CCS(=O)(=O)NC(=O)c1cc(C2CC2)c(OCC2CCN([C@H](COC)c3ccc(Cl)cc3Cl)CC2)cc1F [Example 286, (S)-5-cyclopropyl-4-((1-(1-(2,4-dichlorophenyl)-2-methoxyethyl)piperidin-4-yl)methoxy)-N-(ethylsulfonyl)-2-fluorobenzamide]	5.4
CS(=O)(=O)NC(=O)c1cc(C2CC2)c(O[C@@H]2CCCN([C@H](c3ccc(F)cc3Cl)C(F)(F)F)C2)cc1F (single isomer, unassigned) [Example 297]	10.8
CS(=O)(=O)NC(=O)c1cc(C2CC2)c(O[C@@H]2CCCN(c3ccc(C(F)(F)F)cn3)C2)cc1F [Example 490, (R)-5-cyclopropyl-2-fluoro-N-(methylsulfonyl)-4-((1-(5-trifluoromethyl)pyridin-2-yl)piperidin-3-yl)oxy)benzamide, trifluoroacetic acid salt]	42.3
C[C@@H]1CC[C@@H](COc2cc(F)c(C(=O)NS(C)(=O)=O)cc2C2CC2)CN1[C@H](C)c1cc(Cl)cc(Cl)c1 [Example 343, 5-cyclopropyl-4-(((3R,6R)-1-((R)-1-(3,5-dichlorophenyl)ethyl)-6-methylpiperidin-3-yl)methoxy)-2-fluoro-N-(methylsulfonyl)benzamide, trifluoroacetic acid salt]	8.4
O=C(NS(=O)(=O)C1CC1)c1cc(C2CC2)c(O[C@@H]2CCCN(c3ccc(F)cn3)C2)cc1F [Example 494, (R)-5-cyclopropyl-N-(cyclopropylsulfonyl)-2-fluoro-4-((1-(5-fluoropyridin-2-yl)piperidin-3-yl)oxy)benzamide, trifluoroacetic acid salt]	52.7
CCS(=O)(=O)NC(=O)c1cc(C2CC2)c(OCC2CCN([C@H](c3cc(Cl)cc(Cl)c3)C(F)F)CC2)cc1F [Example 227, (R)-5-cyclopropyl-4-((1-(1-(3,5-dichlorophenyl)-2,2-difluoroethyl)piperidin-4-yl)methoxy)-N-(ethylsulfonyl)-2-fluorobenzamide]	8.1
C[C@H](c1ccc(F)cc1Cl)N1CCC(COc2cc(F)c(C(=O)NS(C)(=O)=O)cc2C2CC2)CC1 [Example 244]	12
Cc1ccc(CN2CCC[C@@H](Oc3cc(F)c(C(=O)NS(C)(=O)=O)cc3C3CC3)C2)cc1Cl [Example 435, (R)-4-((1-(3-Chloro-4-methylbenzyl)piperidin-3-yl)oxy)-5-cyclopropyl-2-fluoro-N-(methylsulfonyl)benzamide, trifluoroacetic acid salt]	5.4
O=C(NS(=O)(=O)N1CCC1)c1cc(C2CC2)c(OCC2CCN(C3(c4cc(Cl)cc(Cl)c4)COC3)CC2)cc1F [Example 176]	9.1
O=C(NS(=O)(=O)N1CCC1)c1cc(C2CC2)c(OCC2CC3CCC(C2)N3Cc2ccccc2Cl)cc1F (stereo not drawn) [Example 47, N-(azetidin-1-ylsulfonyl)-4-((8-(2-chlorobenzyl)-8-azabicyclo[3.2.1]octan-3-yl)methoxy)-5-cyclopropyl-2-fluorobenzamide]	25.1
